Values after ≈ are worked out from the molar mass of the structure shown.
How the values were obtained:
[1] = Antiviral activity against Influenza A virus (A/California/07/2009(H1N1)); assay type: functional
[2] = Antiviral activity against Influenza A virus (A/California/07/09(H1N1)) pdm09 infected in chicken erythrocytes incubated for 1 hr with supernatants from 1 hr compound pre-treated MDCK cells infected with Influenza A virus (A/California/07/2009(H1N1)) pdm09 for 48 hrs assessed as reduction in viral replication by hemagglutination assay; assay type: functional, cell-based
[3] = Cytotoxicity against MDCK cells assessed as reduction in cell viability after 48 hrs by MTT assay; assay type: toxicity, cell-based, Canis lupus familiaris; conditions: dog
[4] = Selectivity index, ratio of CC50 for MDCK cells to IC50 for Influenza A virus (A/California/07/09(H1N1)) pdm09; assay type: functional

SMILES	IC50 [1] [µg/mL]	IC50 [2] [µM]	CC50 at 48 h [3] [µM]	Ratio CC50/IC50 [4]
C=C(C)[C@@H]1CC=C(C)[C@@H](O)[C@@H]1O	20 (≈ 119 µM)			
CC(N)C12CC3CC(CC(C3)C1)C2 (centres undefined) [RIMANTADINE]		44	350	8

Source: ChEMBL document CHEMBL3860052, “Anti-influenza activity of monoterpene-derived substituted hexahydro-2H-chromenes” (Bioorg Med Chem, 2016)
